The source of these data is PMC4550478, “Metronidazole-triazole conjugates: Activity against Clostridium difficile and parasites” (European Journal of Medicinal Chemistry, 2015).

The nature of test [1]: MIC broth microdilution, drug resistant Gram-positive panel. It counts as cell-based. To be noted: all strains of the panel; read-out: MIC against panel of drug resistant Gram-positive strains. The protocol:
(§1) All compounds were tested for activity against a set of anaerobic C. difficile bacteria (630 ATCC BAA-1382, NAP1/027 M7404, NAP1/027 ATCC BAA-1803, VPI10463 ATCC 43255, CD26A54_S and CD26A54_R) and representative ESKAPE pathogens S. aureus (MRSA ATCC 43300), E. coli (ATCC 25922), K. pneumoniae (ATCC 700603), A. baumannii (ATCC 19606) and P. aeruginosa (ATCC 27853) using a standard broth microdilution assay. Selected compounds were tested for activity against H. pylori strains (26695, and clinical isolates MtzS 13/25, MtzR 98/285 and MtzR 13/61) using agar plate dilution, and for antimicrobial activity against […] Gram-positive bacterial strains: Enterococcus faecalis (VanA clinical isolate), Enterococcus faecium (MDR VanA ATCC 51559), Streptococcus pneumoniae (MDR ATCC 700677), S. aureus (MRSA ATCC 43300, MRSA clinical isolate, MRSA/DRSA clinical isolate, GISA NARSA NRS 1, GISA NARSA NRS 17, VRSA NARSA VRS1, VRSA NARSA VRS4 and VRSA NARSA VRS10) using broth microdilution. C. difficile strains were grown at 37 °C in a COY anaerobic chamber (5% H2, 10% CO2, 85% N2). H. pylori strains were grown at 37 °C under a microaerobic atmosphere (5% O2, 10% CO2). All facultative anaerobic bacteria were grown at 37 °C with normal atmospheric oxygen levels. All experiments were performed in duplicate with metronidazole, vancomycin, linezolid or colistin as positive controls for relevant strains (see Table 1). Positive growth control of bacteria and DMSO as well as a negative control of only media were included for every plate. Full assay details are provided in the supplementary information.
MICs were determined by a two-fold serial broth micro dilution according to the recommendation of CLSI standards with an inoculum of 5 × 10^5 CFU/mL^4 The compounds along with standard antibiotics were serially diluted twofold across the wells of 96-well non-binding surface plates (NBS, Corning). Standards ranged from 64 to 0.03 μg/mL, and the compounds from 128 to 0.06 μg/mL with final volumes of 50 μL per well. Gram-positive and Gram-negative bacteria were cultured in Mueller Hinton broth (MHB) (Bacto laboratories, Cat. no. 211443) at 37 °C overnight. A sample of each culture was then diluted 40-fold in fresh MHB broth and incubated at 37 °C for 2-3 h. The resultant mid-log phase cultures were diluted to the final concentration of 5 × 10^5 CFU/mL, then 50 μL was added to each well of the compound containing 96-well plates. All the plates were covered and incubated at 37 °C for 24 h.

Test [2] relates to C. difficile 630 ATCC BAA-1382. The test can be described thus: MIC broth microdilution, C. difficile 630. Type of test: cell-based, Clostridium difficile. Particulars: Clostridioides difficile, ATCCBAA1382, MtzS, 24 h, median of at least n = 4. The protocol:
as §1
C. difficile ATCC BAA-1382, ATCC BAA-1803, ATCC 43255 and M7404 heat shocked spore stocks (10 µL) were transferred into the anaerobic chamber and 10 µL streaked onto pre-reduced (at least 2.5 hr in anaerobic chamber) BHIS agar plates supplemented with 0.1% w/v sodium taurocholate (BHIS(TA)). Plates were incubated for 24 hours prior to assay to give colonies of size 1-3mm diameter with characteristic uneven borders.
The minimum inhibition concentration was determined according to the CLSI Methods with modifications in broth and inoculum for C. difficile according to Babakhani et al.^7,8 Briefly, compounds were prepared to 20X final concentration in 100% water, 60% DMSO and 40% water or 60% DMSO and 40% media. The compounds along with standard antibiotics were serially diluted two-fold across the wells of 96-well non-binding surface plates (Non binding surface, Corning). The plates were placed in the anaerobic chamber overnight to reduce. C. difficile bacteria from BHIS(TA) agar plates were cultured anaerobically in BHIS at 37 °C overnight. A sample of culture was then diluted 40-fold in BHIS broth and incubated at 37 °C for approximately 4.5 hrs. The resultant mid-log phase culture (OD600= 0.5-0.6) was diluted to the final concentration of ~1×10^6 CFU/mL, then 50 µL was added to each well of the compound-containing 96-well plates. This gave final cell concentration of 5×10^5 CFU/mL, final volume 100 µL and 3% maximum DMSO concentration. Compound concentration was typically from 64 to 0.03 µg/mL. An antibiotic standard was included on each 96 well plate as well as a positive growth control (no compound) and sterility control (no bacteria). All the plates were covered and incubated at 37 °C for 24 h. MICs were the lowest concentration showing no visible growth.

Test [3] deals with G. lamblia BRIS/87/HEPU/713 (713). Also on record: method as in earlier work. To be noted: MtzS, crude Mtz-triazoles (>85% purity), ref 15 (Miyamoto et al.); read-out: EC50 G. lamblia 713, Lit.; cited from earlier work.
In test [4] the test system is H. pylori clinical isolate 13/61. The test can be described thus: MIC agar dilution, H. pylori 13/61. Type of test: cell-based. Particulars: Helicobacter pylori, MtzR clinical isolate. The protocol: as §1
(§2) Helicobacter pylori strains, with a range of resistance levels to metronidazole (256 µg/ml, 64 µg/ml, 24 µg/ml, 2 µg/ml, and 0.04 µg/ml), were selected and obtained from Helicobacter Research Laboratory, University of Western Australia. The resistance strength to metronidazole was recorded according to eTest (bioMérieux). H. pylori strain 26695 was used as the control. H. pylori was maintained on the non-selective Columbia blood agar plates (CBA) (Columbia agar base Oxoid) with 5% horse blood and incubated at 37 °C and 10% CO2 for 48 hrs. […] Each of the H. pylori strains were harvested, OD600 calibrated to 0.3, and spotted in triplicate on CBA pre-mixed with the compound. The lowest concentration of antibiotic showing no growth was read as the MIC. The experiment was performed in duplicate.
On the technique in general: In agar dilution the substance is mixed into plates at graded concentrations.

The subject of test [5] is G. lamblia BRIS/83/HEPU/106 (106). The arrangement: method as in earlier work. To be noted: MtzS, crude Mtz-triazoles (>85% purity), ref 15 (Miyamoto et al.); read-out: EC50 G. lamblia 106, Lit.; cited from earlier work.
Test [6] deals with H. pylori clinical isolate 13/25. The test can be described thus: MIC agar dilution, H. pylori 13/25. It counts as cell-based. Particulars: Helicobacter pylori, MtzS clinical isolate. The protocol:
as §1, §2

The test system of the next test is H. pylori 26695. The test can be described thus: MIC agar dilution, H. pylori 26695. Type of test: cell-based. Particulars: Helicobacter pylori, MtzS, microaerobic. The protocol: as §1, §2
The next test has as its system G. lamblia 713-M3 (713M). Also on record: method as in earlier work. Particulars: MtzR, crude Mtz-triazoles (>85% purity), ref 15 (Miyamoto et al.); read-out: EC50 G. lamblia 713M, Lit.; cited from earlier work.
Test [7] relates to H. pylori clinical isolate 98/285. The test can be described thus: MIC agar dilution, H. pylori 98/285. It counts as cell-based. Particulars: Helicobacter pylori, MtzR clinical isolate. The protocol:
as §1, §2

Values after ≈ are worked out from the molar mass of the structure shown. Some results are limits rather than exact numbers.

For orientation: MIC means the lowest concentration that inhibits growth of the organism. As for `Cc1ncc([N+](=O)[O-])n1CCn1cc(CO)nn1` [Compound 4q, 1-(2-(2-methyl-5-nitro-1H-imidazol-1-yl)ethyl)-4-(hydroxymethyl)-1H-1,2,3-triazole], the results for the MIC in [1] and in [2] were above 64 µg/mL and 16 µg/mL (≈ 63.4 µM), respectively.
One may read the EC50 as the concentration that produces a half-maximal response. Turning to `Cc1ncc([N+](=O)[O-])n1CCO` [Compound 1, metronidazole], the MIC in test [1] is above 64 µg/mL; in test [2], 0.5 µg/mL (≈ 2.92 µM); in test [4] it was 32 to 64 µg/mL (≈ 187 to 374 µM); in test [6] it was 4 to 8 µg/mL (≈ 23.4 to 46.7 µM); in the test on H. pylori 26695, 8 µg/mL (≈ 46.7 µM); in [7] it was 64 µg/mL (≈ 374 µM). The EC50 in test [3] is 2 µM; in test [5], 3.6 µM; in the test with G. lamblia 713-M3 (713M), 50 µM.
Consider `Cc1ncc([N+](=O)[O-])n1CCn1cc(-c2ccccc2)nn1` [Compound 4a, 1-(2-(2-methyl-5-nitro-1H-imidazol-1-yl)ethyl)-4-phenyl-1H-1,2,3-triazole], for which the MIC is above 64 µg/mL in test [1] and 0.5 µg/mL (≈ 1.68 µM) in [2]. The values for the EC50 (in test [3]; in [5]; in the test with G. lamblia 713-M3 (713M)) were 0.16 µM, 0.26 µM and 5.3 µM, respectively.
